Data set [1] can be described thus: In vivo PK in rats, p.o. administration. Conditions: 20 mg/kg; for Tmax / Cmax / Kp: rat, po; for Tmax / Cmax: plasma; for Plasma: harvested at or near the Tmax; for Kp: brain and plasma, read-out: Brain:Plasma ratio. On the set-up: species or system rat.
Data set [2] is described as follows: In vivo PK in rats, i.v. administration. On the set-up: species or system rat. Particulars: 2 mg/kg; for Cmax / Vd: rat, iv, plasma; for Vd: read-out: Vdss.
For data set [3], the target named is mGlu1 (Rattus norvegicus (Rat), UniProt P23385). Kind of data set: mGlu1 calcium assay. Type of data set: cell-based. Particulars: full agonist concentration-response ± 10 μM compound.
The target in data set [4] is mGlu4 (Rattus norvegicus (Rat), UniProt P31423). Kind of data set: mGlu4 GIRK thallium flux assay. The format is cell-based. Particulars: full agonist concentration-response ± 10 μM compound.
Chain of mGlu4 (P31423 33-912): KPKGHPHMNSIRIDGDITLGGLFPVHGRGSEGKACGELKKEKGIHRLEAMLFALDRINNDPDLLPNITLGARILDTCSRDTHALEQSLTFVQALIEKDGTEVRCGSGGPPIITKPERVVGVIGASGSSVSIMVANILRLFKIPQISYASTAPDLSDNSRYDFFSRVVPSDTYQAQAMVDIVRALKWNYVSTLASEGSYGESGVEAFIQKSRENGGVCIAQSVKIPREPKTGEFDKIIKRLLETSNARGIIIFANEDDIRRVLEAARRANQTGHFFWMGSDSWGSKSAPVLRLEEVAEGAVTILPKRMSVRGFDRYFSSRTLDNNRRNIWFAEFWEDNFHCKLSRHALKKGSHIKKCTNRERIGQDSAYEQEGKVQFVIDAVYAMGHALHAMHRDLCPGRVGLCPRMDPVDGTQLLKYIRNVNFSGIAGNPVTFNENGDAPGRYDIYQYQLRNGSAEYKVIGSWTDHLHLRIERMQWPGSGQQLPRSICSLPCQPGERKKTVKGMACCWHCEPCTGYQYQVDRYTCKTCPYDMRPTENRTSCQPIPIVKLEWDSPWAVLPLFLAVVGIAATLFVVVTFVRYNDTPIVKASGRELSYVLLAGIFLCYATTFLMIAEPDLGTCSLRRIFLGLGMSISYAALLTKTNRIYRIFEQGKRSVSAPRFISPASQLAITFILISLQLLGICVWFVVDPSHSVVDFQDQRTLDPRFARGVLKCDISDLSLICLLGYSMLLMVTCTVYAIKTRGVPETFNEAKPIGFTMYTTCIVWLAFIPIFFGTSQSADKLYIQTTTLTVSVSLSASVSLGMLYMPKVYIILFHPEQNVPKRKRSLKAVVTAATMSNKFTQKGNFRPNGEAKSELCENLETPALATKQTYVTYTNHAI
The target of data set [5] is mGlu5 (Rattus norvegicus (Rat), UniProt P31424). Put plainly: mGlu5 calcium assay. The format is cell-based. Conditions: full agonist concentration-response ± 10 μM compound.
Data set [6] addresses mGlu6 (Rattus norvegicus (Rat), UniProt P35349). Put plainly: mGlu6 GIRK thallium flux assay. Particulars: full agonist concentration-response ± 10 μM compound. The format is cell-based.
Data set [7] has as its target mGlu7 (Rattus norvegicus (Rat), UniProt P35400). Put plainly: mGlu7 GIRK thallium flux assay. Type of data set: cell-based. Particulars: full L-AP4 concentration-response ± 10 μM compound.
The target of data set [8] is mGlu8 (Rattus norvegicus (Rat), UniProt P70579). Kind of data set: mGlu8 GIRK thallium flux assay. Type of data set: cell-based. Conditions: full agonist concentration-response ± 10 μM compound.
Chain of mGlu8 (P70579 34-908): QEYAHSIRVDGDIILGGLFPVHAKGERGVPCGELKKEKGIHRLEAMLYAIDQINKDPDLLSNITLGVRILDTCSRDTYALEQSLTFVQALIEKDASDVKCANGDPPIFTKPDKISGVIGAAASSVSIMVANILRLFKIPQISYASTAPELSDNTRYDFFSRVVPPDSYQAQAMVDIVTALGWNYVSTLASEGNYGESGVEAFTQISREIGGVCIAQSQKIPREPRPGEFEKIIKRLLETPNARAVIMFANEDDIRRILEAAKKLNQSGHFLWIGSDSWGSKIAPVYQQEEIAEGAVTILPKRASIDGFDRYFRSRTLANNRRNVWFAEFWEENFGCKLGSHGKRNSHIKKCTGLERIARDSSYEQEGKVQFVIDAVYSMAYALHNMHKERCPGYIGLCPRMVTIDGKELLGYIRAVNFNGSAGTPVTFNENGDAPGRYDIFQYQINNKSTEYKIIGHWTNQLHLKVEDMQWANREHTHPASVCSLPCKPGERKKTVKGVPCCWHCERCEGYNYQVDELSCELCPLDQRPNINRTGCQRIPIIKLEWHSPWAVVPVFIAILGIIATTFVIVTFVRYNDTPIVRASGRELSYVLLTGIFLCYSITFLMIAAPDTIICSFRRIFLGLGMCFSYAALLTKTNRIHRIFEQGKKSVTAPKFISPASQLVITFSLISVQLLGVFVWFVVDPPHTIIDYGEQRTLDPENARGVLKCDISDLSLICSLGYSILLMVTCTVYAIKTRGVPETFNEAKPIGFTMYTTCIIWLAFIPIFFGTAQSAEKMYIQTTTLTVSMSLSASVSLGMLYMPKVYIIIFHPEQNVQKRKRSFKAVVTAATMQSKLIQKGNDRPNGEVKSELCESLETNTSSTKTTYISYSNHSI
Data set [9] deals with mGlu2 (Rattus norvegicus (Rat), UniProt P31421). Put plainly: mGlu2 GIRK thallium flux assay.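 For all read-outs here: Cell-based assay, rate of fluorescence rise right after thallium plus agonist addition read on a kinetic imaging plate reader, normalized to vehicle and maximal agonist control.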 Conditions: for General activity at mGlu2: full agonist concentration-response ± 10 μM compound; for EC50: read-out: mGlu2 PAM EC50, test compound, then EC20 glutamate […] later in the presence of thallium; for Emax: read-out: mGlu2 PAM Max.
Chain of mGlu2 (P31421 19-872): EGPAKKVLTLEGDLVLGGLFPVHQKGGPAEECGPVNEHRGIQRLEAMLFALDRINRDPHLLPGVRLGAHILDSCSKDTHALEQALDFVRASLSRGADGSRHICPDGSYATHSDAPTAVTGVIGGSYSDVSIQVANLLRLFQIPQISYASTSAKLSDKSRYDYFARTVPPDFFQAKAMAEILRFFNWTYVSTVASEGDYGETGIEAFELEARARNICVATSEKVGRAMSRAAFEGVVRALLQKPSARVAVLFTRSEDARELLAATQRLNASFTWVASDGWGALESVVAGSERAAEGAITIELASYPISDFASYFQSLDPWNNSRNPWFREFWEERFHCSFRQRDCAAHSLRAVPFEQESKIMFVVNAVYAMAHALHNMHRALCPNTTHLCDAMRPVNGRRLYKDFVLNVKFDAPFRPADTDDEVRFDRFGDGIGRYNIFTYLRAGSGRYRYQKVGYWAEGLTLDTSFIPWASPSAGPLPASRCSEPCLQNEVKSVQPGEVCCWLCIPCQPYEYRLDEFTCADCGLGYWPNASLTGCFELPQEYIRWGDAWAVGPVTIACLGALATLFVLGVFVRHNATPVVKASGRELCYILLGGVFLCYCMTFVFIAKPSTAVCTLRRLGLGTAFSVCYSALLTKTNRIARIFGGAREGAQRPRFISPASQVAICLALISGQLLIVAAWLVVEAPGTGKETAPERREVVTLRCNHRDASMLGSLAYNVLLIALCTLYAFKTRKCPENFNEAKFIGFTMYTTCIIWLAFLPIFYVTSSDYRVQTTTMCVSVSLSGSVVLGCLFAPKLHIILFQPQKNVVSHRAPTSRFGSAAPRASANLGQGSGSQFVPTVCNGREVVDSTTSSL
In data set [10] the target is mGlu3 (Rattus norvegicus (Rat), UniProt P31422). Kind of data set: mGlu3 GIRK thallium flux assay.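 For all read-outs here: kinetic fluorescence slope read shortly after thallium plus agonist addition, scaled between vehicle and maximal agonist control.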 Conditions: for General activity at mGlu3: full agonist concentration-response ± 10 μM compound; for EC50: read-out: mGlu3 PAM EC50, PAM mode, test compound, then EC20 glutamate […] later in the presence of thallium, mean ± SEM; for Emax: read-out: mGlu3 PAM Max.
Chain of mGlu3 (P31422 23-879): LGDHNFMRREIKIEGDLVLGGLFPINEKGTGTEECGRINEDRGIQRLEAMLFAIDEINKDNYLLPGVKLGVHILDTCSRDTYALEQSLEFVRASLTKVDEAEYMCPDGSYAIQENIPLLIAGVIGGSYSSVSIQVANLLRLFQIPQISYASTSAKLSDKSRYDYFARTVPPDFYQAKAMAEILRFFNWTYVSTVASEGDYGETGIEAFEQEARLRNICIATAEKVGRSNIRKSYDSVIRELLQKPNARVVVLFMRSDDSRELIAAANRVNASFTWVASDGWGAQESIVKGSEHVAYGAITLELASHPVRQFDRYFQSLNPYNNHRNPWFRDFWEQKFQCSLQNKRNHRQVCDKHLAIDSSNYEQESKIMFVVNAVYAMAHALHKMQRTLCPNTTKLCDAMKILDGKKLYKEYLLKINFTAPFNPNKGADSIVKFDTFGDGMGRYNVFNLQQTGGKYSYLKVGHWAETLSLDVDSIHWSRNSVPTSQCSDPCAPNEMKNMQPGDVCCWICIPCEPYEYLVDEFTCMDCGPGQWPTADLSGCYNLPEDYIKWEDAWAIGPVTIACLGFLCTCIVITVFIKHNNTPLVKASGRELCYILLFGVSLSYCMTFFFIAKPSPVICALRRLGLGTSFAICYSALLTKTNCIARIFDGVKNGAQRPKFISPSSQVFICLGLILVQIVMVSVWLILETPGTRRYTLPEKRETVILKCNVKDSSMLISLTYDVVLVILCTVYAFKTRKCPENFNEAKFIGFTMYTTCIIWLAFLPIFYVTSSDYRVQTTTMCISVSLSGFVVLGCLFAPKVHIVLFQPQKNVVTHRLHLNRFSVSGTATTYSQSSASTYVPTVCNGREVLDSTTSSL
[11] abbreviates: PAM mode, mean ± SEM, at least three experiments.

Each structure is given as a SMILES string. Where only a bound is given, the exact number is not on record here.

Chain of mGlu7 (P35400 35-915): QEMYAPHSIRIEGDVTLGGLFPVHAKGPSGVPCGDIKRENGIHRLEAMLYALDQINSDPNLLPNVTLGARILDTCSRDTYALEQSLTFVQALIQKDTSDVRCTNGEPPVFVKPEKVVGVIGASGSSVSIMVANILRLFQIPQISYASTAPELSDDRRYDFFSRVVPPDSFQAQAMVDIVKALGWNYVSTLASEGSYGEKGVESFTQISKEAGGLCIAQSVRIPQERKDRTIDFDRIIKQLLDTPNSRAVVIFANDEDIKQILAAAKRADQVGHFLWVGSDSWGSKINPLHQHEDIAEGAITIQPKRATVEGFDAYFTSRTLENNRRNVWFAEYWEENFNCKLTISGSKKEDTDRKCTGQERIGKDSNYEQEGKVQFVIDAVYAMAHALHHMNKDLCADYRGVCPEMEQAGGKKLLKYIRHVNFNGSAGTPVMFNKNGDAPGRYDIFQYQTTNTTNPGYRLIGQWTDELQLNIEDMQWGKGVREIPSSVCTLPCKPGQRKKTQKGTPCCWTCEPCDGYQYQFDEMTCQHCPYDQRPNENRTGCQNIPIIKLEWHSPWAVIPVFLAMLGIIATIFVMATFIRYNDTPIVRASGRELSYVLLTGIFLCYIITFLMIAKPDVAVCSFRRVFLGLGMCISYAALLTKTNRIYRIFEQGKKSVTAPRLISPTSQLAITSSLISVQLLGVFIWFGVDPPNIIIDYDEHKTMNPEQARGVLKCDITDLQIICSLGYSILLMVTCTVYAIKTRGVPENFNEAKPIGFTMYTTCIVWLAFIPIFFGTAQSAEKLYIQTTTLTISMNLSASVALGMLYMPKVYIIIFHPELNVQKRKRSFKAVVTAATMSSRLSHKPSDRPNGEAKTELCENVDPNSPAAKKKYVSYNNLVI

Take `COc1ccc(C(=O)O)cc1OCCCCOc1ccc(C(=O)CC(C)C)c(O)c1C` [Compound 50, 3-{4-[3-Hydroxy-2-methyl-4-(3-methylbutanoyl)phenoxy]butoxy}-4-methoxybenzoic acid]: in data set [1], the “AUC(0→t)” value was 466.2 ± 105.2 (μmol/L) min; the “F, oral bioavailability” value is recorded as 60.4%; the time to peak (Tmax) is 1.6 h; the concentration peaked (Cmax) at 1.05 µM. In [2], the “AUC(0→t)” value was 77.2 ± 8.0 (μmol/L)*min, the Cmax was 2.15 ± 0.14 µM and the Vd was 2.87 ± 0.6 L/kg.

Regarding `Cc1c(OCCCCOc2ccc(F)c(C(=O)O)c2)ccc(C(=O)CC(C)C)c1O` [Compound 36, 2-Fluoro-5-(4-(3-hydroxy-2-methyl-4-(3-methylbutanoyl)phenoxy)butoxy)benzoic acid], in data set [1], the “AUC(0→t)” value is on record as 720.5 ± 283.4 (μmol/L) min; the “F, oral bioavailability” value came to 58.2%; the Plasma was 4.23 ± 1.19 µM; the Kp was 0.06 ± 0.03. Also, in [1], the Tmax is 0.5 h and the concentration peaked (Cmax) at 12.5 µM. Also, in [2], the “AUC(0→t)” value is 123.7 ± 7.7 (μmol/L)*min, the peak concentration (Cmax) came to 3.52 ± 0.13 µM and the Vd stood at 0.89 ± 0.03 L/kg.

Regarding `Cc1c(OCCCCOc2cccc(C(=O)O)c2)ccc(C(=O)CC2CCCC2)c1O` [Compound 25, 3-(4-(4-(2-Cyclopentylacetyl)-3-hydroxy-2-methylphenoxy)butoxy)benzoic acid], the “General activity at mGlu1” value in [3] was “inactive^b”. Besides, the “General activity at mGlu4” value in data set [4] was “inactive^b”. The “General activity at mGlu5” value in [5] is “inactive^b”. Besides, the “General activity at mGlu6” value in [6] was “inactive^b”. Besides, the “General activity at mGlu7” value in data set [7] was “inactive^b”. For the same compound, the “General activity at mGlu8” value in [8] was “inactive^b”. Further, in data set [9], the “General activity at mGlu2” value is “Ago-PAM”. Further, the “Emin, minimal response of the concentration-response of agonist” value in data set [9] (mGlu2, 10 μM compound) is given as “Emin = 45%”; in [10] (mGlu3, 10 μM compound), “Emin = 6%”. Moreover, in [10], the “General activity at mGlu3” value is recorded as “PAM”.

Consider `CCCC(=O)c1ccc(OCCCCOc2ccc(C(=O)O)cc2OC)c(C)c1O` [compound 67], for which the “General activity at mGlu1” value in data set [3] is “Antagonist”. For the same compound, the “General activity at mGlu4” value in [4] is given as “Antagonist”. Also, the “General activity at mGlu5” value in data set [5] is “inactive^b”. Further, the “General activity at mGlu6” value in [6] was “inactive^b”. Moreover, the “General activity at mGlu7” value in [7] is “inactive^b”. Moreover, in data set [8], the “General activity at mGlu8” value was “inactive^b”.

For `Cc1c(OCCCCOc2ccc(C(=O)O)cc2)ccc(C(=O)CC(C)C)c1O` [Compound 20, 4-(4-(3-Hydroxy-2-methyl-4-(3-methylbutanoyl)phenoxy)butoxy)benzoic acid], the “General activity at mGlu1” value in [3] is “inactive^b”. Moreover, in data set [4], the “General activity at mGlu4” value was “inactive^b”. The “General activity at mGlu5” value in data set [5] is “inactive^b”. The “General activity at mGlu6” value in [6] is “inactive^b”. The “General activity at mGlu7” value in data set [7] was “inactive^b”. In addition, the “General activity at mGlu8” value in data set [8] is “inactive^b”. Also, in [1], the “AUC(0→t)” value was 544.8 ± 75.4 (μmol/L) min; the “F, oral bioavailability” value worked out at 23.5%; the Plasma is 5.29 ± 1.98 µM; the Kp turned out to be 0.2 ± 0.03. Further, in data set [1], the Tmax is 2.25 h and the highest level (Cmax) was 2.57 ± 0.45 µM. Further, in data set [2], the “AUC(0→t)” value is on record as 231.7 ± 42.12 (μmol/L)*min, the peak level (Cmax) was 5 ± 0.6 µM and the Vd turned out to be 0.81 ± 0.14 L/kg. Also, in data set [10], the “General activity at mGlu3” value is “PAM”.

On to `Cc1c(OCCCCOc2ccc(C(=O)O)c(Cl)c2)ccc(C(=O)CC2CCCC2)c1O` [Compound 33, 2-Chloro-4-(4-(4-(2-cyclopentylacetyl)-3-hydroxy-2-methylphenoxy)butoxy)benzoic acid], for which the “General activity at mGlu1” value in data set [3] was “inactive^b”. Besides, in data set [4], the “General activity at mGlu4” value was “inactive^b”. Besides, the “General activity at mGlu5” value in data set [5] was “inactive^b”. In addition, the “General activity at mGlu6” value in data set [6] was “inactive^b”. Besides, the “General activity at mGlu7” value in data set [7] was “inactive^b”. Moreover, the “General activity at mGlu8” value in data set [8] was “inactive^b”. The “General activity at mGlu2” value in data set [9] is recorded as “Ago-PAM”.

Take `Cc1cc(-c2cccc(COc3ccc(C(=O)CC(C)(C)C)c(O)c3C)c2)ccc1C(=O)O` [compound 143, 3′-((4-(3,3-Dimethylbutanoyl)-3-hydroxy-2-methylphenoxy)methyl)-3-methyl-[1,1′-biphenyl]-4-carboxylic acid]: the results for the EC50 in [9] (setting [11]) and in [10] were 0.571 ± 0.138 µM and 3.06 ± 0.624 µM, respectively. Also, the Emax in data set [9] amounted to 87 ± 11.7%; in [10] it was 78.3 ± 21.1%.

On to `Cc1c(OCc2cccc(-c3cccc(C(=O)O)c3)c2)ccc(C(=O)CC2CCCC2)c1O` [compound 129, 3′-((4-(2-Cyclopentylacetyl)-3-hydroxy-2-methylphenoxy)methyl)-[1,1′-biphenyl]-3-carboxylic acid], for which the results for the EC50 in data set [9] (setting [11]) and in data set [10] were 0.616 ± 0.217 µM and 3.56 ± 1.94 µM, respectively. For the same compound, the Emax in data set [9] turned out to be 97.5 ± 9%; in data set [10], 94 ± 10.1%.

Regarding `COC(=O)c1ccc(OCc2cccc(COc3ccc(C(=O)CC(C)C)c(O)c3C)c2)cc1` [compound 119], the EC50 in data set [9] (setting [11]) and in data set [10] was over 30 µM throughout.

As for `Cc1c(OCc2cccc(COc3ccc(C#N)cc3)c2)ccc(C(=O)CC2CCCC2)c1C` [compound 154], the EC50 in [9] (setting [11]) and in [10] was over 30 µM in each case.

As to `COc1ccc(-c2noc(=O)[nH]2)cc1OCCCCOc1ccc(C(=O)CC(C)(C)C)c(O)c1C` [compound 98, 3-(3-(4-(4-(3,3-Dimethylbutanoyl)-3-hydroxy-2-methylphenoxy)butoxy)-4-methoxyphenyl)-1,2,4-oxadiazol-5(4H)-one], the EC50 was 0.681 ± 0.09 µM in data set [9] (setting [11]) and 1.23 ± 0.185 µM in data set [10]. The Emax was determined as 101 ± 2.9% in data set [9] and 102 ± 4.7% in data set [10].

Turning to `Cc1c(OCc2cccc(-c3cnccc3C(=O)O)c2)ccc(C(=O)CC(C)(C)C)c1O` [Compound 180, 3-(3-((4-(3,3-Dimethylbutanoyl)-3-hydroxy-2-methylphenoxy)methyl)phenyl)isonicotinic acid], the EC50 in [9] (setting [11]) is 1.46 ± 0.02 µM; in data set [10], over 30 µM. In addition, the Emax in [9] was determined as 88.4 ± 1.5%; in data set [10] it was 30.6 ± 9.2%.

With `COc1cc(C(=O)NO)ccc1OCCCCOc1ccc(C(=O)CC(C)(C)C)c(O)c1C` [compound 88, 4-(4-(4-(3,3-Dimethylbutanoyl)-3-hydroxy-2-methylphenoxy)butoxy)-N-hydroxy-3-methoxybenzamide], the EC50 worked out at 2.42 ± 0.278 µM in data set [9] (setting [11]) and 5.46 ± 0.184 µM in [10]. In addition, the Emax in data set [9] turned out to be 86.4 ± 2.6%; in data set [10], 53.5 ± 10.6%.

For the compound `Cc1c(OCc2cccc(-c3ccc(Cl)c(C(=O)O)c3)c2)ccc(C(=O)CC(C)C)c1O` [compound 172], the “mGlu2 PAM Max” value in [9] (PAM mode, % Glutamate Max, mean ± SEM, at least three experiments) is given as 73.7 ± 1.2%. Moreover, the figures for the EC50 in data set [9] (setting [11]) and in data set [10] were 0.763 ± 0.04 µM and over 10 µM, respectively.

(Values after US10099993B2, “Metabotropic glutamate receptor positive allosteric modulators (PAMS) and uses thereof” (Sanford-Burnham Medical Research Institute, priority 2014, dated 2018).)
